Test results reported in patent publication US10370409B2, “Synthesis of libraries of peptide tertiary amides” (The Scripps Research Institute, priority 2011, dated 2019).
Like-named read-outs stand apart in the source and are kept apart here. Numbered stars: 1 amine (or outer) side, 2 acyl side, 3 side chain; on linkers, the order of the positions; unused ones are H or OH. Square brackets hold non-standard residues; d marks the D form. Peptide text beside a SMILES is read from it. X1 = COc1ccc(CN([C@@H](C)C(=O)[*:2])[*:1])cc1OC; Gly(Nα-4-F-phenethyl) = O=C(O)CNCCc1ccc(F)cc1; X3 = COc1ccc(CN(CC(=O)[*:2])[*:1])cc1OC; X2 = C[C@@H](C(=O)[*:2])N(CCCCN)[*:1]; Gly(N-propargyl) = C#CCNCC(=O)O; NFurfurylGly = O=C(O)CNCc1ccco1; Nlys = NCCCCNCC(=O)O

How the values were obtained:
[1] = target: scFv PX4-4; experiment: Fluorescence polarization / anisotropy titration of fluorescein-labelled compounds with PX4-4; type: binding, human; conditions: for Kd: FP titration with PX4-4
Experimental: Hits identification: All 17 hits were cleaved using CNBr and then characterized by MALDI mass spectrum. All 17 structures were resynthesized and examined against PX4-4 with FP assay. Only one hit was identified as binder with a Kd <10 μM.
(§1) The affinity of compound 13 for PX4-4 was determined by fluorescence anisotropy.
96 beads were chosen randomly from the library and placed individually into the wells of a 96-well filter plate. Each well was treated with fluorescein azide and a copper catalyst to attach fluorescein to the alkyne handle and then the compounds were cleaved from beads. The beads were filtered out and the soluble compounds were used for the fluorescence polarization (FP) assay. All 27 possible structures were found in this collection of molecules by tandem MS sequencing. Semi-quantitative binding constants for the PX4-4 antibody all 27 of the compounds were determined by titrating the compounds with the protein in the microwell format and monitoring the increase in FP. […] Most of the curves approached saturation, allowing for an accurate determination of the KD. In contrast, compound A41, corresponding to peptoid 14), was not saturated in the tested protein concentration range (100 nM to 400 μM) (FIG. 9B).

[2] = test system: whole human IgG; experiment: Fluorescence polarization selectivity test with a mixture of human IgG; type: binding; conditions: FP experiment repeated using a mixture of human IgG; FIG. 9B
Experimental: as §1
To address the selectivity of compounds A14 (N,R,S configuration), A7 (N,S,S), A68 (R,S,R), A41(N,N,N) and A24 (R,R,R) for PX4-4, the FP experiment was repeated using a mixture of human IgG as we did previously for compound 13. […] This implies that greater conformational flexibility is associated with binding promiscuity.

[3] = re-synthesized and purified compounds, read-out: Kd-re
[4] = semi-quantitative, compounds cleaved from single beads, 96-well microwell format, read-out: Kd-96

Row | Compound | Kd [1, 3] | Kd [1, 4] | binding with whole human IgG [2] | saturation of FP binding curve with PX4-4 ([1]; protein concentration range 100 nM to 400 μM, FIG. 9B)
1 | C#CCN(CC(=O)N(CCCCN)CC(=O)N(CC(N)=O)Cc1ccco1)C(=O)CN(CCCCN)C(=O)CN(CCc1ccc(F)cc1)C(=O)[C@H](C)N(CCCCN)C(=O)[C@H](C)NCc1ccc(OC)c(OC)c1 [A7] (H-[X1][X2][Gly(Nα-4-F-phenethyl)][Nlys][Gly(N-propargyl)][Nlys][NFurfurylGly]-NH2) | 25.4 µM | 40.9 µM | no binding | –
2 | C#CCN(CC(=O)N(CCCCN)CC(=O)N(CC(N)=O)Cc1ccco1)C(=O)CN(CCCCN)C(=O)CN(CCc1ccc(F)cc1)C(=O)CN(CCCCN)C(=O)CNCc1ccc(OC)c(OC)c1 [A41] (H-[X3][Nlys][Gly(Nα-4-F-phenethyl)][Nlys][Gly(N-propargyl)][Nlys][NFurfurylGly]-NH2) | – | 113 µM | – | not saturated

Second part, the molecule after the results:

Row | Kd [1, 3] | Kd [1, 4] | binding with whole human IgG [2] | saturation of FP binding curve with PX4-4 ([1]; protein concentration range 100 nM to 400 μM, FIG. 9B) | Compound
3 | 65.2 µM | 43.2 µM | no binding | – | [2H]C([2H])([2H])[C@@]([2H])(NCc1ccc(OC)c(OC)c1)C(=O)N(CCCCN)[C@@H](C)C(=O)N(CCc1ccc(F)cc1)[C@@]([2H])(C(=O)N(CCCCN)CC(=O)N(CC#C)CC(=O)N(CCCCN)CC(=O)N(CC(N)=O)Cc1ccco1)C([2H])([2H])[2H] [A68]
4 | 233 µM | 117 µM | no binding | – | [2H]C([2H])([2H])[C@@]([2H])(NCc1ccc(OC)c(OC)c1)C(=O)N(CCCCN)[C@@]([2H])(C(=O)N(CCc1ccc(F)cc1)[C@@]([2H])(C(=O)N(CCCCN)CC(=O)N(CC#C)CC(=O)N(CCCCN)CC(=O)N(CC(N)=O)Cc1ccco1)C([2H])([2H])[2H])C([2H])([2H])[2H] [A24]
5 | 19.1 µM | 27.5 µM | no binding | – | [2H]C([2H])([2H])[C@]([2H])(C(=O)N(CCc1ccc(F)cc1)CC(=O)N(CCCCN)CC(=O)N(CC#C)CC(=O)N(CCCCN)CC(=O)N(CC(N)=O)Cc1ccco1)N(CCCCN)C(=O)[C@H](C)NCc1ccc(OC)c(OC)c1 [A14]
